{"source": "patent US20210283204A1", "about": "“Lin28a ACTIVATOR AND USE THEREFOR” (TES Holdings CO., LTD., priority 2016, published 2021)", "system": "Lin28a", "assay": "Lin28a expression induction in mouse vascular endothelial cell line TKD2 cell (RT-PCR, agarose gel)", "assay_type": "cell-based", "details": "100 μg/mL, cultured for 5 days, FIG. 1", "procedure": "Mouse vascular endothelial cell line TKD2 cell (National Institute of Biomedical Innovation, Health, and Nutrition, distributed from JCRB Cell Bank, Cell number: IF050374) was sown in advance in a 6-well plate to be 4×10^4 cells/well, and cultured overnight at 33° C. in 5% CO2 environment.\nSubsequently, on the day after the date when the mouse vascular endothelial cell line TKD2 cell was sown, the exocrine secretion of Saccharomyces boulardii prepared in (1) was added to the culture medium to reach a final concentration of 100 μg/mL, and cultured for 5 days while performing addition. After the addition, the culture medium was not exchanged at all. […]\nAfter culturing, the cell was isolated and recovered by using 0.25% of Trypsin-EDTA solution (manufactured by ThermoFisher Corporation, 25200056). […] From the total RNA, cDNA was produced by using ImProm-II (registered trademark) reverse Transcription System (Promega A3801), and expression of Lin28a was monitored by PCR using primers shown in the following Table 1. […]"}
{"substance": "ganglioside", "values": [{"measurement": "expression of Lin28a", "value": "expression of Lin28a was not induced"}]}
